Results taken from patent US12270064B2, “Peptide for complexing zinc ion, complex thereof and use therefor” (Guangzhou University, priority 2020, dated 2025).
No end group written: not given here.

Test: Complexing rate / complexing ability of zinc ion of soybean peptide fractions
Format: binding
Settings: HPLC separation of F2, FIG. 2

Substance: KYKRQRW [F21, single peptide component purified by HPLC from F2; also made by solid phase peptide synthesis]
- complexing ability with zinc ion, ranking among HPLC fractions: strongest complexing ability with zinc ion
